Measurements published in patent publication US20240182460A1, “ALLOSTERIC CHROMENONE INHIBITORS OF PHOSPHOINOSITIDE 3-KINASE (PI3K) FOR THE TREATMENT OF DISEASE” (PETRA PHARMA CORPORATION, priority 2022, published 2024).
pIC50: −log10 of the molar value.

Assays:
[1] = target: T1, PI3Kα E545K (Homo sapiens, UniProt P42336, E545K); test: PI3Kα E545K mutant in vitro cell based assay, MCF-7 cells; details: MCF-7 cell line, 0% FBS, 3 hours treatment
From the text: PI3K-Alpha Kinase (PI3Kα) Activity: Wild-Type PI3Kα, H1047R Mutant PI3Kα, and E545K Mutant PI3Kα In Vitro Cell Based Assays and Determination of IC50 Values for Inhibitors
The MDA-MB-453 (ATCC-HTB-131) cell line (PI3Kα H1047R) and MCF-7 (ATCC-HTB-22) cell line (PI3Kα E545K), MDA-MB-361 (ATCC-HTB-27) cell line (PI3Kα E545K), and SKBR3 (ATCC-HTB-30) cell line (wild type PI3Kα) were obtained from the American Type Culture Collection (Manassas, VA). MDA-MB-453 cells were maintained in Dulbecco's Modified Eagle Media (DMEM, Gibco 12430) supplemented with 10% Fetal Bovine Serum, heat inactivated (FBS HI, Gibco 10082), 1× non-essential amino acids (NEAA, Gibco 11140), 1 mM sodium pyruvate (Gibco 11360) and 1× Anti-Anti (Gibco 15240). MCF-7 cells were maintained in Minimum Essential Media (MEM) (Gibco 11095) supplemented with 10% Fetal Bovine Serum, heat inactivated (FBS HI, Gibco 10082), 1× non-essential amino acids (NEAA, Gibco 11140), 1 mM sodium pyruvate (Gibco 11360), 1× Anti-Anti (Gibco 15240) and 10 μg/mL human insulin (Sigma I 9278). MDA-MB-361 cells were maintained in Dulbecco's Modified Eagle Media (DMEM, Gibco 12430) supplemented with 20% Fetal Bovine Serum, heat inactivated (FBS HI, Gibco 10082), 1× non-essential amino acids (NEAA, Gibco 11140), 1 mM sodium pyruvate (Gibco 11360) and 1× Anti-Anti (Gibco 15240). SKBR3 cells were maintained in McCoy's 5A (Gibco 16600) supplemented with 10% Fetal Bovine Serum, heat inactivated (FBS HI, Gibco 10082), and 1× Anti-Anti (Gibco 15240). Cultures were maintained in a humidified incubator at 37° C. under 5% CO2/95% air.
For compound testing in 0% FBS, MDA-MB-453, MCF-7 and SKBR3 cells were seeded at a density of 1.5×10^4, 1.0×10^4, and 1.0×10^4 cells, respectively, per well in white 384-well plates in 20 μl of Minimum Essential Media (MEM) assay media with 1×NEAA, 1 mM sodium pyruvate, and 1 μg/mL human insulin (Sigma 19278) (Assay Medium); while MDA-MB-361 cells were seeded at a density of 1.5×10^4 per well in white 384-well plates in 20 μl Assay Medium without insulin. After plating, cells were allowed to attach overnight. Compounds dissolved in 10 mM stock solutions in DMSO were serially diluted 1:3 in DMSO to generate a 10-point dilution series and plated using an acoustic liquid handler system (Echo 550 Series Liquid Handler, Labcyte). A 5× intermediate compound dilution plate in MEM with 1×NEAA and 1 mM sodium pyruvate (150 μM starting compound concentration in 1.5% DMSO) was then prepared. Five μl of the intermediate serially diluted compounds were added to the cell plate to final concentrations ranging from […] in 0.3% DMSO. 0.3% DMSO alone was used to establish the maximum (MAX) signal and GDC-0032 at a final concentration of 1 μM was used as a reference compound for the minimum (MIN) signal. After 3 hours treatment, the medium was removed, and the cells were lysed in 10 μL of 1× SureFire Lysis buffer with shaking for 10 minutes at room temperature. The Acceptor Mix (Reaction Buffer 1+Reaction Buffer 2+Activation Buffer+SureFire Ultra Acceptor Beads) was prepared by diluting Activation buffer 25-fold in combined Reaction Buffer 1 and Reaction Buffer 2.
The Acceptor beads were diluted 50-fold in the combined Reaction Buffers. Five μL of Acceptor Mix was added to each well, the plate was sealed and covered with foil and incubated for 1 hour at room temperature. The Donor Mix (dilution buffer+SureFire Ultra Donor Beads) was prepared by diluting Donor Beads 50-fold in dilution buffer. Five μL of the Donor Mix was added to each well and the plate sealed and covered with foil and incubated for 1-2 hours at room temperature in the dark. The plates were read on a Neo2 plate reader instrument from Biotek using standard AlphaLisa settings.
Compounds were tested in duplicate and the % inhibition at each compound concentration was used to generate two dose response curves. One IC50 was generated using average % inhibition at each compound concentration. […]

[2] = target: T1, PI3Kα E545K; test: PI3Kα E545K mutant in vitro cell based assay, MDA-MB-361 cells; set-up: MDA-MB-361 (ATCC-HTB-27) cell line (PI3Kα E545K); host or cells: MDA-MB-361; details: MDA-MB-361 cell line, 0% FBS, no insulin, 3 hours treatment
In short: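 MDA-MB-361 cells (PI3Kα E545K) seeded in serum-free MEM assay medium without insulin, attached overnight, then treated 3 h with compound (10-point 1:3 series, 0.3% DMSO). AlphaLISA SureFire readout of lysates. IC50 by 4-parameter fit, normalized to DMSO (max) and 1 μM GDC-0032 (min).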

T1 sequence (P42336 whole entry E545K): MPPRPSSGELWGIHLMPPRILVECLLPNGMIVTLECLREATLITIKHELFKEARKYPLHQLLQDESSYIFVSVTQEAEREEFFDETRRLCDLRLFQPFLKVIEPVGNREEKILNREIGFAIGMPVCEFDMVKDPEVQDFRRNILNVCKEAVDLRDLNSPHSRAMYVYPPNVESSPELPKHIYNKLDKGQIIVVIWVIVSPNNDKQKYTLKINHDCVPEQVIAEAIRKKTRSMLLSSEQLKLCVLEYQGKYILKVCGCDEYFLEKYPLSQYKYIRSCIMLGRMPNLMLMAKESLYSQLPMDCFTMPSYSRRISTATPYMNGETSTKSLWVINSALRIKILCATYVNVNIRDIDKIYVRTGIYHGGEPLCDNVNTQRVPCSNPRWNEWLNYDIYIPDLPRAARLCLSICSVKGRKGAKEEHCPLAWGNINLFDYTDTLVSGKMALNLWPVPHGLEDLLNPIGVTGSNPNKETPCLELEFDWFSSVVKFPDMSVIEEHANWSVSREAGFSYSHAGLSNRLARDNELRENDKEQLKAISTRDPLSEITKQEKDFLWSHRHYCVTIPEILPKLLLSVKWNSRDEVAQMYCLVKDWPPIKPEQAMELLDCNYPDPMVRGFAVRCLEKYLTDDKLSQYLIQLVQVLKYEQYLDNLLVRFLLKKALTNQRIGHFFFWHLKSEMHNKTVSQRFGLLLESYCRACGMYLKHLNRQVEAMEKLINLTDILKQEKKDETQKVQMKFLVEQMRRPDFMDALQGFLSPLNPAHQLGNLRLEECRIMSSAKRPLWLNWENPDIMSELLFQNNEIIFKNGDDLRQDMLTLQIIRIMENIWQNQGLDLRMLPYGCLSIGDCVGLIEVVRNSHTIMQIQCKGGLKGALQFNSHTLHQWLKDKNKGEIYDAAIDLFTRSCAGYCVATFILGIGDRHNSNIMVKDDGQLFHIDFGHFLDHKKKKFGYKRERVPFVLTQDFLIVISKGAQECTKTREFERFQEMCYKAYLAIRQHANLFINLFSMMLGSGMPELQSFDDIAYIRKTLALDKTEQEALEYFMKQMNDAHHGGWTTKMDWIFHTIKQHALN
T1 sequence (P27986 whole entry partner): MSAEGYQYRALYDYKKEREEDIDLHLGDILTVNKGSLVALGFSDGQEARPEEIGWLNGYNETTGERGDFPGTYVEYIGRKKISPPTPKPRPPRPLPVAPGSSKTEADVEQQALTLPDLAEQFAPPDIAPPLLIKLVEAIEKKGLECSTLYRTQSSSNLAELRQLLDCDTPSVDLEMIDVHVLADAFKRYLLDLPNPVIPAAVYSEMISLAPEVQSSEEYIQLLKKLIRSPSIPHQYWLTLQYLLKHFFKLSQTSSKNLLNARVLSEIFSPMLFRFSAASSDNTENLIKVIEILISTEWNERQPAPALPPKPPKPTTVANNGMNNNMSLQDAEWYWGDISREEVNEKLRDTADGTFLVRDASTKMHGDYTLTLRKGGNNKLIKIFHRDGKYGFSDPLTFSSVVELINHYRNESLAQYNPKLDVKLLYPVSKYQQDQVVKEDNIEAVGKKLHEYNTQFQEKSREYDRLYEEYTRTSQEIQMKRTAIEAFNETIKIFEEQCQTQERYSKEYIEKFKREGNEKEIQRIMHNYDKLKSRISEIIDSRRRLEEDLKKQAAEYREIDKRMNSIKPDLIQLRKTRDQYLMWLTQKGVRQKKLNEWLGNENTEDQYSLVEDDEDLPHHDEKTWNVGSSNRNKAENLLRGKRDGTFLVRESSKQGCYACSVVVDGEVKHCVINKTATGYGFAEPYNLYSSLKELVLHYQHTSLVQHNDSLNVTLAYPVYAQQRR

Compound	pIC50 [1]	pIC50 [2]
Cc1cc([C@@H](C)Oc2ccc(Cl)nc2S(N)(=O)=O)c2oc(C3CC3CO)c(C)c(=O)c2c1 (single isomer, unassigned) [Example 126C]	> 6.30	> 6.30
Cc1cc([C@@H](C)Oc2ccc(Cl)nc2S(N)(=O)=O)c2oc(-c3cnoc3)c(C)c(=O)c2c1 [Example 12C, 6-Chloro-3-[(1R)-1-(2-isoxazol-4-yl-3,6-dimethyl-4-oxo-chromen-8-yl)ethoxy]pyridine-2-sulfonamide]	> 6.30	–
Cc1cc([C@@H](C)Oc2ccc(Cl)nc2C(N)=O)c2oc(-c3ccc4c(c3)CN(C)C4=O)c(C)c(=O)c2c1 [Example 14B, 6-Chloro-3-[(1R)-1-[3,6-dimethyl-2-(2-methyl-1-oxo-isoindolin-5-yl)-4-oxo-chromen-8-yl]ethoxy]pyridine-2-carboxamide]	> 6.30	–
Cc1cc([C@@H](C)Oc2ccc(Cl)nc2C(N)=O)c2oc(-c3ccc4c(c3)C(=O)N(C)C4)c(C)c(=O)c2c1 [Example 15B, 6-Chloro-3-[(1R)-1-[3,6-dimethyl-2-(2-methyl-3-oxo-isoindolin-5-yl)-4-oxo-chromen-8-yl]ethoxy]pyridine-2-carboxamide]	> 6.30	–
Cc1cc([C@@H](C)Oc2ccc(Cl)nc2S(N)(=O)=O)c2oc(-c3ccc4nn(C)cc4c3)c(C)c(=O)c2c1 [Example 16A, 6-Chloro-3-[(1R)-1-[3,6-dimethyl-2-(2-methylindazol-5-yl)-4-oxo-chromen-8-yl]ethoxy]pyridine-2-sulfonamide]	> 6.30	> 6.30
Cc1cc([C@@H](C)Oc2ccc(F)c(F)c2C(N)=O)c2oc(-c3ccc4nn(C)cc4c3)c(C)c(=O)c2c1 [Example 17A, 6-[(1R)-1-[3,6-Dimethyl-2-(2-methylindazol-5-yl)-4-oxo-chromen-8-yl]ethoxy]-2,3-difluoro-benzamide]	> 6.30	> 6.30
Cc1cc([C@@H](C)Oc2ccc(Cl)nc2C(N)=O)c2oc(-c3ccccn3)c(C)c(=O)c2c1 [Example 19A, 6-Chloro-3-[(1R)-1-[3,6-dimethyl-4-oxo-2-(2-pyridyl)chromen-8-yl]ethoxy]pyridine-2-carboxamide]	> 6.30	–
Cc1cc([C@@H](C)Oc2ccc(Cl)nc2C(N)=O)c2oc(-c3cnn(C)c3)c(C)c(=O)c2c1 [Example 22A, 6-Chloro-3-[(1R)-1-[3,6-dimethyl-2-(1-methylpyrazol-4-yl)-4-oxo-chromen-8-yl]ethoxy]pyridine-2-carboxamide]	> 6.30	–
Cc1cc([C@@H](C)Oc2cccnc2C(=O)NOCC2CC2)c2oc(-c3ccc4nn(C)cc4c3)c(C)c(=O)c2c1 [Example 25A, N-(Cyclopropylmethoxy)-3-[(1R)-1-[3,6-dimethyl-2-(2-methylindazol-5-yl)-4-oxo-chromen-8-yl]ethoxy]pyridine-2-carboxamide]	> 6.30	> 6.30
Cc1cc([C@@H](C)Oc2ccc(Cl)nc2C(N)=O)c2oc(-c3ccc4nn(C)c(F)c4c3)c(C)c(=O)c2c1 [Example 48C, 6-Chloro-3-[(1R)-1-[2-(3-fluoro-2-methyl-indazol-5-yl)-3,6-dimethyl-4-oxo-chromen-8-yl]ethoxy]pyridine-2-carboxamide]	> 6.30	–
Cc1cc([C@@H](C)Oc2ccc(Cl)nc2C(N)=O)c2oc(-c3ccc4c(c3)OCCO4)c(C)c(=O)c2c1 [Example 65A, 6-Chloro-3-[(1R)-1-[2-(2,3-dihydro-1,4-benzodioxin-6-yl)-3,6-dimethyl-4-oxo-chromen-8-yl]ethoxy]pyridine-2-carboxamide]	> 6.30	–
Cc1cc([C@@H](C)Oc2ccc(Cl)nc2C(N)=O)c2oc(-c3ccc4c(c3)ncn4C)c(C)c(=O)c2c1 [Example 69A, 6-Chloro-3-[(1R)-1-[3,6-dimethyl-2-(1-methylbenzimidazol-5-yl)-4-oxo-chromen-8-yl]ethoxy]pyridine-2-carboxamide]	> 6.30	–
Cc1cc([C@@H](C)Oc2ccc(Cl)nc2C(N)=O)c2oc(-c3ccc4c(c3)CCN(C)C4)c(C)c(=O)c2c1 [Example 71A, 6-Chloro-3-[(1R)-1-[3,6-dimethyl-2-(2-methyl-3,4-dihydro-1H-isoquinolin-6-yl)-4-oxo-chromen-8-yl]ethoxy]pyridine-2-carboxamide]	> 6.30	–
Cc1cc([C@@H](C)Oc2ccc(Cl)nc2S(N)(=O)=O)c2oc(C3COC3)c(C)c(=O)c2c1 [Example 114C, 6-Chloro-3-[(1R)-1-[3,6-dimethyl-2-(oxetan-3-yl)-4-oxo-chromen-8-yl]ethoxy]pyridine-2-sulfonamide]	> 6.30	–
Cc1cc([C@@H](C)Oc2ccc(Cl)nc2C(N)=O)c2oc(-c3ccc4c(c3)CCNC4=O)c(C)c(=O)c2c1 [Example 116A, 6-Chloro-3-[(1R)-1-[3,6-dimethyl-4-oxo-2-(1-oxo-3,4-dihydro-2H-isoquinolin-6-yl)chromen-8-yl]ethoxy]pyridine-2-carboxamide]	> 6.30	–
Cc1cc([C@@H](C)Oc2ccc(Cl)nc2S(N)(=O)=O)c2oc(-c3ccc4nc(C)cn4c3)c(C)c(=O)c2c1 [Example 120C, 6-Chloro-3-[(1R)-1-[3,6-dimethyl-2-(2-methylimidazo[1,2-a]pyridin-6-yl)-4-oxo-chromen-8-yl]ethoxy]pyridine-2-sulfonamide]	> 6.30	–
Cc1cc([C@@H](C)Oc2ccc(Cl)nc2C(N)=O)c2oc(-c3cnc4scnc4c3)c(C)c(=O)c2c1 [Example 126A, 6-Chloro-3-[(1R)-1-(3,6-dimethyl-4-oxo-2-thiazolo[5,4-b]pyridin-6-yl-chromen-8-yl)ethoxy]pyridine-2-carboxamide]	> 6.30	–
Cc1cc([C@@H](C)Oc2ccc(Cl)nc2S(N)(=O)=O)c2oc(C3(CCO)CC3)c(C)c(=O)c2c1 [Example 127C, 6-Chloro-3-[(1R)-1-[2-[1-(2-hydroxyethyl)cyclopropyl]-3,6-dimethyl-4-oxo-chromen-8-yl]ethoxy]pyridine-2-sulfonamide]	> 6.30	–
CONS(=O)(=O)c1nc(F)ccc1O[C@H](C)c1cc(C)cc2c(=O)c(C)c(-c3cnn(CC(C)(C)O)c3)oc12 [Example 136C, 6-Fluoro-3-[(1R)-1-[2-[1-(2-hydroxy-2-methyl-propyl)pyrazol-4-yl]-3,6-dimethyl-4-oxo-chromen-8-yl]ethoxy]-N-methoxy-pyridine-2-sulfonamide]	> 6.30	–
Cc1cc([C@@H](C)Oc2ccc(Cl)nc2C(N)=O)c2oc(-c3ccc4nsnc4c3)c(C)c(=O)c2c1 [Example 140A, 3-[(1R)-1-[2-(2,1,3-Benzothiadiazol-5-yl)-3,6-dimethyl-4-oxo-chromen-8-yl]ethoxy]-6-chloro-pyridine-2-carboxamide]	> 6.30	–
